1 compound from patent US9522163B2, “Methods of treating hepatitis” (priority 2002, dated 2016) can be followed below.

The structures appear in SMILES notation.

Experiment [1] deals with LPS/D-Gal-induced liver injury. Nature of the experiment: LPS/D-Gal acute hepatitis model. Type of experiment: in vivo, mice. The protocol:
Results discussed above were confirmed using lipopolysaccharide (LPS, also referred to as endotoxin) in place of TNF. […] In mice pretreated with 250 ppm CO, the increase in ALT was reduced by >75%, to 250+/−75 IU/ml. To further characterize the effects observed with CO in this model, serum interleukin-6 was measured, and found to be reduced 65% in animals breathing CO vs air-breathing controls (data not shown). […] Few changes in the markers of inflammation (edema, hemorrhage, neutrophil infiltration) were observed. Architecture was maintained and appeared grossly similar to untreated and CO (in the absence of LPS/D-Gal)-treated mice. Overall, the use of LPS/D-Gal to induce acute hepatitis paralleled and confirmed data generated using TNF/D-Gal treatment.

Experiment [2] relates to hemorrhagic shock liver injury. Nature of the experiment: Murine model of hemorrhagic shock, liver injury. To be noted: inhaled CO during resuscitation after 2.5 hour shock phase; at 24 hr. Type of experiment: in vivo.
[3] abbreviates: pretreated with 250 ppm CO, 8 hours after LPS/D-Gal.

On to `[C-]#[O+]` [CO, carbon monoxide], for which the Liver histopathology entry in experiment [1] (CO and LPS/D-Gal) is recorded as “protected to the same extent”. The “Serum interleukin-6 reduced vs air-breathing controls” value in experiment [1] (animals breathing CO, LPS/D-Gal, data not shown) is on record as 65%. In addition, in experiment [1] (setting [3]), the “Reduction of the increase in serum ALT” value is recorded as over 75% and the “Serum ALT” value is 250+/−75 IU/ml. In addition, the “Reduction in serum ALT” value in experiment [2] is over 65%.
